Literature values, collected in patent US8097259B2, “Method for prevention and treatment of Alzheimer's disease” (SunWay Biotech Co., Ltd., priority 2007, dated 2012).

Tested on: Alzheimer's disease
Conditions: Wolozin et al. 2000

CC[C@H](C)C(=O)O[C@H]1C[C@@H](C)C=C2C=C[C@H](C)[C@H](CC[C@@H]3C[C@@H](O)CC(=O)O3)[C@H]21 [lovastatin]
results for AD treatment among statins: best results
